Counter-ions that a name gives are not always drawn. Like-named read-outs stand apart in the source and are kept apart here.
Molecular target: T1, human A3AR (Homo sapiens, UniProt P0DMS8)
T1 construct: expressed in transfected cells
T1 sequence (P0DMS8 1-318): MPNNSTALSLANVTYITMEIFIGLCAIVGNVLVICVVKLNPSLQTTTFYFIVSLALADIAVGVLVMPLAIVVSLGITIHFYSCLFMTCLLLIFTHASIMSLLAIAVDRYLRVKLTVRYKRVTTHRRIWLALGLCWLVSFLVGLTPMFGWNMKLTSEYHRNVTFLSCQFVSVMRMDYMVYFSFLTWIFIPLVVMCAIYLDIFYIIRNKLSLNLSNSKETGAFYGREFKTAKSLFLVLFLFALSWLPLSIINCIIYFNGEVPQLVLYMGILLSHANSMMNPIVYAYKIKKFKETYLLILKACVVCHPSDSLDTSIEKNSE
Experiment: LOPAC library primary screen: single concentration (10 μM) inhibition of 25 nM CA200645 binding, PHERAstar FS

[1] = % of control wells (1% DMSO and 25 nM CA200645), compounds at 10 µM, whole live cells expressing the A3AR, mean ± SD, three experiments in duplicate

| Molecule | % 25 nM CA200645 binding | also measured |
| --- | --- | --- |
| CC(=O)N1CCN(c2ccc(OCC3COC(Cn4ccnc4)(c4ccc(Cl)cc4Cl)O3)cc2)CC1 (stereo not shown) [Ketoconazole] | 98.9 ± 9.0% | – |
| O=c1ccn([C@@H]2O[C@H](COP(=O)([O-])OP(=O)([O-])O)[C@@H](O)[C@H]2O)c(=O)[nH]1.[Na+].[Na+] [Uridine 5'-diphosphate sodium] | 100.6 ± 5.7% | – |
| COc1cc2c(cc1OC)C1CC(=O)C(CC(C)C)CN1CC2 (stereo not shown) [Tetrabenazine] | 91.3 ± 18.4% | – |
| Ro 8-4304 | 107.2 ± 11.5% | – |
| NC(=O)CN1CCCC1=O [Piracetam] | 110.0 ± 4.3% | – |
| Cc1ccc(=O)n(-c2ccccc2)c1 [Pirfenidone] | 96.4 ± 15.8% | – |
| CC1CCN(CC[C@H]2CCCN2S(=O)(=O)c2cccc(O)c2)CC1.Cl [SB 269970 hydrochloride] | 93.6 ± 22.9% | – |
| COC(=O)[C@H](NC(=O)c1cc(-c2ccccc2)nc2ccccc12)c1ccccc1 [SB 218795] | 51.1 ± 8.4% | – |
| NCCS(=O)(=O)O [Taurine] | – | % 25 nM CA200645 binding (compounds tested at 10 µM, % of control wells (1% DMSO and 25 nM CA200645), whole live cells expressing the A3AR, mean ± SD, three experiments in duplicate): 106.8 ± 10.4% |
| CCCCc1oc2ccccc2c1C(=O)c1cc(I)c(OCCN(CC)CC)c(I)c1 [Amiodarone hydrochloride] | 91.5 ± 10.5% | – |
| CS(=O)(=O)c1ccc(-n2nc(C(F)(F)F)cc2-c2ccc(F)cc2)cc1 [SC-58125] | – | % 25 nM CA200645 binding (% of control wells (1% DMSO and 25 nM CA200645), compounds at 10 µM, whole live cells expressing A3AR, mean ± SD, three experiments in duplicate): 96.5 ± 13.6% |
| O=C1NC(=O)C(c2ccccc2)(c2ccccc2)N1 [5,5-Diphenylhydantoin] | 95.9 ± 12.2% | – |
| O=C1NCc2c1c1c3ccccc3[nH]c1c1[nH]c3ccccc3c21 [Staurosporine aglycone] | 81.9 ± 6.1% | – |
| O=C(O)c1cccnc1Nc1cccc(C(F)(F)F)c1 [Niflumic acid] | 113.3 ± 19.3% | – |
| CS(=O)(=O)O.Cc1c(O)cccc1C(=O)N[C@@H](CSc1ccccc1)[C@H](O)CN1C[C@H]2CCCC[C@H]2C[C@H]1C(=O)NC(C)(C)C.O [Nelfinavir mesylate hydrate] | 77.3 ± 17.3% | – |
| Nn1nnc2ccccc21 [1-Aminobenzotriazole] | 83.5 ± 18.8% | – |
| CCCCCCCCCCCCCCCCCC(=O)OC(CC(=O)O)C[N+](C)(C)C.[Cl-] (racemic) [DL-Stearoylcarnitine chloride] | 44.2 ± 6.0% | – |
| C[N+]1(C)[C@@H]2C[C@@H](OC(=O)[C@H](CO)c3ccccc3)C[C@H]1[C@@H]1O[C@@H]12 [(-)-Scopolamine methyl bromide] | 88.5 ± 14.0% | – |
| CNCC[C@H](Oc1ccc(C(F)(F)F)cc1)c1ccccc1.Cl [S-(+)-Fluoxetine hydrochloride] | 102.0 ± 9.9% | – |
| Br.Cc1o[nH]c(=O)c1CC(N)C(=O)O (racemic) [(±)-AMPA hydrobromide] | 96.2 ± 10.6% | – |
| Br.CN=c1nc(-c2ccccc2)n(-c2ccccc2)s1 [SCH-202676 hydrobromide] | 83.4 ± 13.1% | – |
| CCCC(C(=O)OCCN(CC)CC)(c1ccccc1)c1ccccc1.Cl [SKF-525A hydrochloride] | 95.3 ± 9.0% | – |
| Cc1ccc(S(=O)(=O)/C=C/C#N)cc1 [Bay 11-7082] | 104.6 ± 21.3% | – |
| CNC[C@H](O)c1cccc(O)c1 [Phenylephrine hydrochloride] | 102.2 ± 12.7% | – |
| CCN(CC)CCNC(=O)c1ccc(NC(C)=O)cc1.Cl [N-Acetylprocainamide hydrochloride] | 86.4 ± 17.7% | – |

| Molecule | % 25 nM CA200645 binding | also measured |
| --- | --- | --- |
| CC(C)(C)C(=O)Oc1ccc(S(=O)(=O)Nc2ccccc2C(=O)NCC(=O)[O-])cc1.[Na+] [Sivelestat sodium salt hydrate] | 96.6 ± 6.4% | – |
| O=c1c(-c2ccc(O)cc2)coc2cc(O)cc(O)c12 [Genistein] | – | % 25 nM CA200645 binding [1]: 66.1 ± 12.2% |
| CO[C@@]1(NC(=O)CSCC#N)C(=O)N2C(C(=O)O)=C(CSc3nnnn3C)CS[C@@H]21 [Cefmetazole sodium] | 84.6 ± 22.3% | – |
| NCCS(=O)O [Hypotaurine] | 94.6 ± 26.1% | – |
| COCCOC(=O)C1=C(C)NC(C)=C(C(=O)OC/C=C/c2ccccc2)C1c1cccc([N+](=O)[O-])c1 (stereo not shown) [Cilnidipine] | 67.0 ± 19.0% | – |
| Cc1cnc(C(=O)NCCc2ccc(S(=O)(=O)NC(=O)NC3CCCCC3)cc2)cn1 [Glipizide] | 96.3 ± 1.2% | – |
| CC(=O)[C@]1(O)Cc2c(O)c3c(c(O)c2[C@@H](O[C@H]2C[C@H](N)[C@H](O)[C@H](C)O2)C1)C(=O)c1ccccc1C3=O [Idarubicin] | 95.1 ± 1.7% | – |
| CNC(=O)c1cc2c(cn1)[nH]c1ccccc12 [N-Methyl-beta-carboline-3-carboxamide] | 84.9 ± 8.4% | – |
| CCN(CC)CCNC(=O)c1ccc(N)cc1 [Procainamide hydrochloride] | 89.6 ± 33.7% | – |
| Nc1ccc2c3c(cccc13)C(=O)NC2=O [4-Amino-1,8-naphthalimide] | 95.4 ± 12.1% | – |
| L-Methionine sulfoximine | 107.1 ± 5.4% | – |
| Cl.O[Si](CCCN1CCCCC1)(c1ccc(F)cc1)C1CCCCC1 (stereo not shown) | 104.8 ± 7.7% | – |
| O=c1onc2cnc3ccccc3n12 [ODQ] | 93.0 ± 5.7% | – |
| CCCNCC(O)COc1ccccc1C(=O)CCc1ccccc1 (stereo not shown) [Propafenone hydrochloride] | 111.3 ± 10.1% | – |
| CCOC(=O)[N-]c1cn(N2CCOCC2)n[o+]1 [Molsidomine] | 91.8 ± 17.4% | – |
| Cc1nc(N=Nc2ccc(C(=O)O)cc2)c(COP(=O)(O)O)c(C=O)c1O [MRS 2159] | 83.0 ± 11.6% | – |
| Clc1ccc(N2C[C@H]3CC[C@@H](C2)N3)nn1 [DBO-83] | 97.7 ± 11.0% | – |
| COc1ccc(CCn2nnnc2C2(c3ccc(C)cc3)CC2)cc1 [Mephetyl tetrazole] | 66.4 ± 18.5% | – |
| COc1cccc(-c2cc(=O)c3ccccc3o2)c1N [PD 98,059] | 80.7 ± 2.6% | – |
| NCC(=O)NCCC(c1ccccc1)c1ccccc1 [N-(3,3-Diphenylpropyl)glycinamide] | 98.7 ± 7.8% | – |
| Oc1c2ccccc2c2c3c(cccc13)N=N2 [SP600125] | 41.0 ± 10.4% | – |
| CCCN(CCc1ccccc1)C1CCc2c(O)cccc2C1.Cl (racemic) [(±)-PPHT hydrochloride] | 101.7 ± 5.1% | – |
| CC(C)(C)c1ccc(S(=O)(=O)/C=C/C#N)cc1 [Bay 11-7085] | 95.2 ± 7.7% | – |
| CC(=O)C(C)=O [2,3-Butanedione] | 101.3 ± 15.0% | – |
| C=CCN1CC[C@]23CCCC[C@H]2[C@H]1Cc1ccc(O)cc13 [Levallorphan tartrate] | 105.9 ± 7.3% | – |

| Molecule | % 25 nM CA200645 binding | also measured |
| --- | --- | --- |
| CCN1CCC[C@H]1CNC(=O)c1c(O)c(Cl)cc(Cl)c1OC.O=C(O)C(O)C(O)C(=O)O (racemic) [S(+)-Raclopride L-tartrate] | 98.6 ± 4.9% | – |
| CC(C)(C=O)Cc1cc(C(C)(C)C)c(O)c(C(C)(C)C)c1 [CGP-13501] | 97.4 ± 7.1% | – |
| Fc1ccc2[nH]c(CN3CCN(c4ccccn4)CC3)cc2c1 [CP-226269] | 83.6 ± 17.8% | – |
| Fc1ccc([C@@H]2CCNC[C@H]2COc2ccc3c(c2)OCO3)cc1 [Paroxetine hydrochloride hemihydrate] | 97.2 ± 4.3% | – |
| CCOC(=O)[C@H](CCc1ccccc1)N[C@@H](C)C(=O)N1[C@H](C(=O)O)C[C@H]2CCCC[C@@H]21 [Trandolapril] | 99.7 ± 12.5% | – |
| Cl.NC1C=CC=C(C(=O)O)C1 (stereo not shown) [Gabaculine hydrochloride] | 97.5 ± 8.4% | – |
| CC(Cc1ccc(O)c(O)c1)C(C)Cc1ccc(O)c(O)c1 (stereo not shown) | 79.3 ± 28.3% | – |
| COc1cc(N)c(Cl)cc1C(=O)OCCN1CCCCC1 [ML 10302] | 105.8 ± 6.4% | – |
| Oc1cccc2c(O)nccc12 [1,5-Isoquinolinediol] | 97.2 ± 4.1% | – |
| PD-184161 | 50.8 ± 14.3% | – |
| Clc1ccc2c(c1)N=C(N1CCNCC1)c1ccccc1N2 [N-Desmethylclozapine] | – | % 25 nM CA200645 binding [1]: 98.4 ± 14.7% |
| CCOC(=O)Nc1ccc(NCc2ccc(F)cc2)nc1N [Flupirtine maleate] | 75.3 ± 9.1% | – |
| Oc1ccc(Cn2cc[nH]c2=S)cc1 [1-(4-Hydroxybenzyl)imidazole-2-thiol] | 87.3 ± 21.6% | – |
| NC(=O)NO [Hydroxyurea] | 107.6 ± 23.3% | – |
| Cl.N=C(N)NN [Aminoguanidine hydrochloride] | 100.9 ± 6.1% | – |
| Brc1c(NC2=NCCN2)ccc2nccnc12 [UK 14,304] | 102.1 ± 10.4% | – |
| O=[N+]([O-])c1cc2nc(O)c(O)nc2cc1[N+](=O)[O-] [DNQX] | 85.0 ± 6.8% | – |
| CNCC(O)c1ccc(O)c(O)c1.Cl (racemic) [(±)-Epinephrine hydrochloride] | 95.7 ± 7.0% | – |
| O=C(/C=C/c1ccc(O)cc1)c1ccc(O)cc1O [Isoliquiritigenin] | 88.0 ± 9.1% | – |
| CN1CCC(=C2c3ccccc3C=Cc3ccccc32)CC1 [Cyproheptadine hydrochloride] | 96.0 ± 5.5% | – |
| CNCCCC1c2ccccc2C=Cc2ccccc21 [Protriptyline hydrochloride] | 101.6 ± 7.3% | – |
| CP(=O)(O)C1=CCNCC1 [TPMPA] | 99.7 ± 3.7% | – |
| COc1cc(NS(C)(=O)=O)ccc1Nc1c2ccccc2nc2ccccc12 [Amsacrine hydrochloride] | 99.8 ± 8.3% | – |
